Results: patent publication US20260306421A1, “SYSTEMS AND METHODS FOR TRANSDERMAN PATCH DELIVERY” (VITAMAX PATCH WHOLESALER LLC, priority 2022, published 2026)

Key:
[1] = Cholecalciferol phosphate adhesive suitability / compatibility screen; format: physicochemical
Description: Pre-formulation studies were performed to determine the compatibility of cholecalciferol phosphate (disodium and acid forms) with a range of adhesives (Table 38) that could be used to manufacture of the patch. The compatibility of the drugs with the patch excipients was assessed through checking the clarity of the mixture.
The compatibility of the adhesive with solvents and drug was established. The maximum drug loading in the adhesive following solvent evaporation was determined by mixing the drug, adhesive and co-solvents until a clear solution is obtained at different drug:adhesive ratios by placing a drop of solution onto patch backing sheet, leaving the slide to dry for 3-4 hours and examining the formed fil on the surface of the backings for evidence of drug crystals were assessed using KKmoon digital magnifier with LED light (China). Following patch optimization, the drug-adhesive solution was cast as 10×10 cm squares using of backing (3M™ Scotchpak™ Polyester Backing Film Laminate 9730). A sufficient volume of the adhesive was applied to achieve a target coating of 8 mg/cm^2. Following complete drying of the solvents, the adhesive layer was covered by M3 Release liner (SCOTCHPAK 9755), compressed, and then cut using 34 mm circular manual die cutter (SCP Super Cutting Press).

[2] = Cholecalciferol phosphate disodium patch release; format: in vitro ADME; settings: control solution in PG, 24 h
Description: The patch was produced by mixing 82.9 μL of the adhesive, 1.92 μL of PG and the 4 mg of cholecalciferol phosphate disodium (Table 39). The patch formulation was cast into an in-house rectangular tray measuring 10 by 10 cm. The mixture was left to cure for 3-4 h. The laminate was then added to the adhesive and circles of 34 mm diameter were cut using a dye cutting machine and the release of the cholecalciferol was assessed using the Franz diffusion cells fitted with a nylon membrane over 24 h. A nylon membrane (0.20 μm) was glued to the receiver chamber and no donor chamber was employed to allow the patch to be placed directly on the surface of the nylon membrane. A cholecalciferol phosphate disodium saturated PG solution was used as a comparator with the standard Franz cell set-up previously described. The receiver fluid was 80% PG 20% water for both release testing from the solution and the patch.

[3] = Release of cholecalciferol phosphate disodium solutions through synthetic membrane; format: in vitro ADME
Description: Preliminary studies were conducted to determine the best synthetic membrane for the patch release using the Franz diffusion cells. Regenerated cellulose (12-14 k molecular weight cut-off Medicell International UK) was compared to nylon (0.20 μm, Whatman, UK) using a range of donor and receiver solutions. The regenerated cellulose membrane was heated to 60° C. for 30 minutes after which the double layer of polymer (it is supplied as a dialysis membrane) was separated and mounted onto the Franz cell (FIG. 3) by sealing between the two compartments using parafilm, and 12 mm magnetic stirrers were placed into the receiver compartment. The receiver compartment was filled with either 50:50 PG:mobile phase (90:10 methanol:water pH 3.2), or 80:20 PG:distilled water, or 75 mM pH 7 saline. The cell sealing was confirmed by cell inversion and monitoring solvent back diffusion. […] The temperature of the Franz diffusion was maintained at 37° C. in a water bath, to set up the membrane temperature to 32° C. […] The 1 ml receiver fluid samples were collected and analysed by HPLC methods at different time intervals. […]

cholecalciferol phosphate disodium
compatibility with DURO-TAK 87-2516 [1]: compatible | compatibility with DURO-TAK 87-9301 [1]: did not show compatibility | miscibility with Oppanol B12 and Oppanol N100 [1]: did not show acceptable miscibility | highest active loading without any crystallization ([1]; DURO-TAK 87-2516): 0.6 mg/mL | Solubility ([1]; DURO-TAK 87-2516 93.2 μL, 10% w/v drug, 1.4 mL methanol, 2.75 mL ethyl acetate, 2 μL PG, 150 μL water): Clear | Solubility ([1]; DURO-TAK 87-2516 100 μL, 10% w/v drug, 0.5 mL methanol, 0.5-1.5 mL ethyl acetate, 2 μL PG, no water): Not clear | Solubility ([1]; DURO-TAK 87-2516 180 μL, 5% drug, 1.4 mL methanol, 2.5 mL ethyl acetate, 4 μL PG, 150 μL water): Clear | Solubility ([1]; DURO-TAK 87-2516 200 μL, 3% drug, 0.9 mL methanol, 2 mL ethyl acetate, 40 μL PG, 100 μL water): Clear | Solubility ([1]; DURO-TAK 87-9301 suitability screen, 4 mg drug, 0.2 mL adhesive, 1-4 mL ethyl acetate, 60 μL PG): Opaque | Solubility ([1]; DURO-TAK 87-9301 suitability screen, 4 mg drug, no adhesive, 4 mL methanol, 40 μL PG): Clear | active release from PG solution, percent of applied active [2]: 17% | active release from PG solution ([2]; nylon membrane): 512±17 μg/cm^2 | release through regenerated cellulose membrane ([3]; PG donor, 50:50 PG:MP (90:10 methanol:water pH 3.2) receiver): 22.0±4.6% | release through regenerated cellulose membrane ([3]; saline donor, saline receiver): 3.0±0.7%
